Measured values taken from patent US12240862B2, “Inhibitors of peptidylarginine deiminases” (Gilead Sciences, Inc., priority 2020, dated 2025).

Target: T1, human PAD4 (Homo sapiens, UniProt Q9UM07)
T1 construct: human PAD4 (NM_012387), A2P663, was PCR amplified; His-SUMO (N, cleaved yes); made in house; host or cells: E. coli BL21(DE3)
Test: In vitro PAD4 BAEE biochemical assay
Details: human PAD4, BAEE substrate; 5 nM PAD4, 2 mM calcium chloride, 3 mM BAEE; geometric mean of multiple experiments
How it was run: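 Ammonia release from BAEE deimination monitored by o-phthalaldehyde amine coupling (1 h, 25 °C) after EDTA stop. Final conditions: 5 nM tag-free recombinant human PAD4 (E. coli), 2 mM CaCl2, 3 mM BAEE, pH 7.6 MOPS with DTT; 30 min compound preincubation, then 2 h reaction at 25 °C.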

T1 sequence (Q9UM07 2-663): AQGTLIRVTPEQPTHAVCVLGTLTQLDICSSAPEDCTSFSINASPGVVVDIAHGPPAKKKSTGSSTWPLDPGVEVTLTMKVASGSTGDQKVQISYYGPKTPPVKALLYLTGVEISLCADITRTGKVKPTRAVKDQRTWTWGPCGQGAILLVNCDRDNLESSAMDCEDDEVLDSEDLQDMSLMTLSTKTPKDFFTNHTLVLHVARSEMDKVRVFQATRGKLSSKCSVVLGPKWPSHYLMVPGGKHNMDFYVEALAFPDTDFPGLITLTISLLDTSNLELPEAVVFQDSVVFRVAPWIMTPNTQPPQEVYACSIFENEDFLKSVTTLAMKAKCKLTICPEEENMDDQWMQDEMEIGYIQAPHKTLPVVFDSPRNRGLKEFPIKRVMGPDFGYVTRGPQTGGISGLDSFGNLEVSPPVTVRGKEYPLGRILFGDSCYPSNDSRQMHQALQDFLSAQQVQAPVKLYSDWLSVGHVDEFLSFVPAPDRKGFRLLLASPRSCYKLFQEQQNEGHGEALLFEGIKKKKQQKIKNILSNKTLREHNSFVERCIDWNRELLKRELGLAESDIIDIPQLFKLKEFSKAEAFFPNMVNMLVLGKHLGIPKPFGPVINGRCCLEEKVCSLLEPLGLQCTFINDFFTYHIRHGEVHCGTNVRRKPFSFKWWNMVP

IC50	Compound
8.36 µM	COc1cc(C(=O)N[C@H]2CNCC[C@@H]2C)cc2nc(-c3cc4ccc(N(C(F)F)S(C)(=O)=O)nc4n3CC3CC3)c(C)n12 [Example 288, 2-[1-(cyclopropylmethyl)-6-[difluoromethyl (methylsulfonyl)amino]pyrrolo[2,3-b]pyridin-2-yl]-5-methoxy-3-methyl-~{N}-[(3~{R},4~{S})-4-methylpiperidin-3-yl]imidazo[1,2-a]pyridine-7-carboxamide]
9.87 µM	COc1cc(C(=O)N2C[C@H](N)[C@@H](F)C2)cc2nc(-c3cc4ccc(N(C(F)F)S(C)(=O)=O)nc4n3CC3CC3)c(C)n12 [Example 290, ~{N}-[2-[7-[(3~{S}, 4~{S})-3-amino-4-fluoropyrrolidine-1-carbonyl]-5-methoxy-3-methylimidazo [1,2-a]pyridin-2-yl]-1-(cyclopropylmethyl)pyrrolo [2,3-b]pyridin-6-yl]-~{N}-(difluoromethyl) methanesulfonamide]
6.36 µM	COc1cc(C(=O)N2C[C@@H](F)[C@@H](N)C2)cc2nc(-c3cc4ccc(N(C(F)F)S(C)(=O)=O)nc4n3CC3CC3)c(C)n12 [Example 291, ~{N}-[2-[7-[(3~{S}, 4~{R})-3-amino-4-fluoropyrrolidine-1-carbonyl]-5-methoxy-3-methylimidazo [1,2-a]pyridin-2-yl]-1-(cyclopropylmethyl)pyrrolo [2,3-b]pyridin-6-yl]-~{N}-(difluoromethyl) methanesulfonamide]
38.4 µM	COc1cc(C(=O)NC[C@@H]2CCCCN2)cc2nc(-c3cc4ccc(N(C(F)F)S(C)(=O)=O)nc4n3CC3CC3)c(C)n12 [Example 294, 2-[1-(cyclopropylmethyl)-6-[difluoromethyl (methylsulfonyl)amino]pyrrolo[2,3-b]pyridin-2-yl]-5-methoxy-3-methyl-~ {N}-[[(2~{S})-piperidin-2-yl]methyl]imidazo[1,2-a]pyridine-7-carboxamide]
27.2 µM	COc1cc(C(=O)NC[C@H]2CCCCN2)cc2nc(-c3cc4ccc(N(C(F)F)S(C)(=O)=O)nc4n3CC3CC3)c(C)n12 [Example 295, 2-[1-(cyclopropylmethyl)-6-[difluoromethyl (methylsulfonyl)amino]pyrrolo[2,3-b]pyridin-2-yl]-5-methoxy-3-methyl-~{N}-[[(2~{R})-piperidin-2-yl]methyl] imidazo[1,2-a]pyridine-7-carboxamide]
24.6 µM	COc1cc(C(=O)N[C@H]2CCCCNC2)cc2nc(-c3cc4ccc(N(C(F)F)S(C)(=O)=O)nc4n3CC3CC3)c(C)n12 [Example 296, ~{N}-[(3~{S})-azepan-3-yl]-2-[1-(cyclopropylmethyl)-6-[difluoromethyl (methylsulfonyl)amino]pyrrolo[2,3-b]pyridin-2-yl]-5-methoxy-3-methylimidazo[1,2-a]pyridine-7-carboxamide]
30 µM	COc1cc(C(=O)N[C@@H]2CC[C@H]3CC[C@@H]2N3)cc2nc(-c3cc4ccc(N(C(F)F)S(C)(=O)=O)nc4n3CC3CC3)c(C)n12 [Example 298, ~{N}-[(1~{S},2~{R}, 5~{R})-8-azabicyclo [3.2.1]octan-2-yl]-2-[1-(cyclopropylmethyl)-6-[difluoromethyl (methylsulfonyl)amino]pyrrolo[2,3-b]pyridin-2-yl]-5-methoxy-3-methylimidazo[1,2-a]pyridine-7-carboxamide]
8.05 µM	COc1cc(C(=O)N[C@@H]2CC[C@@H]3CC[C@H]2N3)cc2nc(-c3cc4ccc(N(C(F)F)S(C)(=O)=O)nc4n3CC3CC3)c(C)n12 [Example 299, ~{N}-[(1~{R},2~{R}, 5~{S})-8-azabicyclo [3.2.1]octan-2-yl]-2-[1-(cyclopropylmethyl)-6-[difluoromethyl (methylsulfonyl)amino]pyrrolo[2,3-b]pyridin-2-yl]-5-methoxy-3-methylimidazo[1,2-a]pyridine-7-carboxamide]
23.5 µM	COc1cc(C(=O)NC[C@@H]2CCCN2)cc2nc(-c3cc4ccc(N(C(F)F)S(C)(=O)=O)nc4n3CC3CC3)c(C)n12 [Example 303, 2-[1-(cyclopropylmethyl)-6-[difluoromethyl (methylsulfonyl)amino]pyrrolo[2,3-b]pyridin-2-yl]-5-methoxy-3-methyl-~{N}-[[(2~{S})-pyrrolidin-2-yl]methyl] imidazo[1,2-a] pyridine-7-carboxamide]
19.2 µM	COc1cc(C(=O)NC[C@H]2CCCN2)cc2nc(-c3cc4ccc(N(C(F)F)S(C)(=O)=O)nc4n3CC3CC3)c(C)n12 [Example 304, 2-[1-(cyclopropylmethyl)-6-[difluoromethyl (methylsulfonyl)amino]pyrrolo[2,3-b]pyridin-2-yl]-5-methoxy-3-methyl-~{N}-[[(2~{R})-pyrrolidin-2-yl]methyl] imidazo[1,2-a]pyridine-7-carboxamide]
1.61 µM	COc1cc(C(=O)N[C@H]2CNC[C@H](F)C2)cc2nc(-c3cc4ccc(N(C(F)F)S(C)(=O)=O)nc4n3CC3CC3)c(C)n12 [Example 306, 2-[1-(cyclopropylmethyl)-6-[difluoromethyl (methylsulfonyl)amino]pyrrolo[2,3-b]pyridin-2-yl]-~{N}-[(3~{R},5~{R})-5-fluoropiperidin-3-yl]-5-methoxy-3-methylimidazo [1,2-a]pyridine-7-carboxamide]
25.6 µM	COc1cc(C(=O)N[C@H]2CNC[C@@H](F)C2)cc2nc(-c3cc4ccc(N(C(F)F)S(C)(=O)=O)nc4n3CC3CC3)c(C)n12 [Example 307, 2-[1-(cyclopropylmethyl)-6-[difluoromethyl (methylsulfonyl)amino]pyrrolo[2,3-b]pyridin-2-yl]-~{N}-[(3~{R},5~{S})-5-fluoropiperidin-3-yl]-5-methoxy-3-methylimidazo [1,2-a]pyridine-7-carboxamide]
0.886 µM	COc1cc(C(=O)N2CC[C@H]3CCCN[C@H]3C2)cc2nc(-c3cc4ccc(N(C(F)F)S(C)(=O)=O)nc4n3CC3CC3)c(C3CC3)n12 [Example 310, ~{N}-[2-[7-[(4~{a}~{R},8~{a}~{R})-2,3,4,4~{a},5,6,8,8~{a}-octahydro-1~{H}-1,7-naphthyridine-7-carbonyl]-3-cyclopropyl-5-methoxyimidazo [1,2-a]pyridin-2-yl]-1-(cyclopropylmethyl)pyrrolo [2,3-b]pyridin-6-yl]-~{N}-(difluoromethyl) methanesulfonamide]
0.383 µM	COc1cc(C(=O)N2[C@H]3CC[C@@H]2[C@H](N)[C@H](O)C3)cc2nc(-c3cc4ccc(N(C(F)F)S(C)(=O)=O)nc4n3CC3CC3)c(C)n12 [Example 311, ~{N}-[2-[7-[(1~{R}, 2~{S},3~{R},5~{S})-2-amino-3-hydroxy-8-azabicyclo[3.2.1]octane-8-carbonyl]-5-methoxy-3-methylimidazo [1,2-a]pyridin-2-yl]-1-(cyclopropylmethyl)pyrrolo [2,3-b]pyridin-6-yl]-~{N}-(difluoromethyl) methanesulfonamide]
31.2 µM	COc1cc(C(=O)N[C@@H]2C[C@@H]3CC[C@H]2N3)cc2nc(-c3cc4ccc(N(C(F)F)S(C)(=O)=O)nc4n3CC3CC3)c(C)n12 [Example 312, N-[(1R,2R,4S)-7-azabicyclo[2.2.1]heptan-2-yl]-2-[1-(cyclopropylmethyl)-6-[difluoromethyl (methylsulfonyl)amino]pyrrolo[2,3-b]pyridin-2-yl]-5-methoxy-3-methyl-imidazo[1,2-a] pyridine-7-carboxamide]
24.2 µM	COc1cc(C(=O)N[C@H]2CNCC[C@H]2C)cc2nc(-c3cc4ccc(N(C(F)F)S(C)(=O)=O)nc4n3CC3CC3)c(C)n12 [Example 313, 2-[1-(cyclopropylmethyl)-6-[difluoromethyl (methylsulfonyl)amino]pyrrolo[2,3-b]pyridin-2-yl]-5-methoxy-3-methyl-~{N}-[(3~{R},4~{R})-4-methylpiperidin-3-yl]imidazo[1,2-a] pyridine-7-carboxamide]
38.7 µM	COc1cc(C(=O)N[C@@H]2CC[C@@H](C)NC2)cc2nc(-c3cc4ccc(N(C(F)F)S(C)(=O)=O)nc4n3CC3CC3)c(C)n12 [Example 314, 2-[1-(cyclopropylmethyl)-6-[difluoromethyl (methylsulfonyl)amino]pyrrolo[2,3-b]pyridin-2-yl]-5-methoxy-3-methyl-~{N}-[(3~{R},6~{R})-6-methylpiperidin-3-yl]imidazo[1,2-a] pyridine-7-carboxamide]
0.35 µM	COc1cc(C(=O)N[C@@H]2CC[C@H](C)NC2)cc2nc(-c3cc4ccc(N(C(F)F)S(C)(=O)=O)nc4n3CC3CC3)c(C)n12 [Example 315, 2-[1-(cyclopropylmethyl)-6-[difluoromethyl (methylsulfonyl)amino]pyrrolo[2,3-b]pyridin-2-yl]-5-methoxy-3-methyl-~{N}-[(3~{R},6~{S})-6-methylpiperidin-3-yl]imidazo[1,2-a] pyridine-7-carboxamide]
0.306 µM	COc1cc(C(=O)N[C@@H]2CCCCNC2)cc2nc(-c3cc4ccc(N(C(F)F)S(C)(=O)=O)nc4n3CC3CC3)c(C)n12 [Example 316, ~{N}-[(3~{R})-azepan-3-yl]-2-[1-(cyclopropylmethyl)-6-[difluoromethyl (methylsulfonyl)amino]pyrrolo[2,3-b]pyridin-2-yl]-5-methoxy-3-methylimidazo[1,2-a]pyridine-7-carboxamide]
0.813 µM	COc1cc(C(=O)N[C@H]2CNC[C@@H](C)C2)cc2nc(-c3cc4ccc(N(C(F)F)S(C)(=O)=O)nc4n3CC3CC3)c(C)n12 [Example 317, 2-[1-(cyclopropylmethyl)-6-[difluoromethyl (methylsulfonyl)amino]pyrrolo[2,3-b]pyridin-2-yl]-5-methoxy-3-methyl-~{N}-[(3~{R},5~{S})-5-methylpiperidin-3-yl] imidazo[1,2-a]pyridine-7-carboxamide]
